According to US7390836B2, “Small molecules used to increase cell death” (priority 1999, dated 2008):
Like-named read-outs stand apart in the source and are kept apart here. Peptide text beside a SMILES is read from it. * marks the point of attachment. Cbz = O=C(OCc1ccccc1)*; CH2F = FC*

Experiments:
[1] = system: Bak BH3 peptide / Bcl-xL (Bcl-xL/GST, Bcl-xL-His6) interaction; assay: Fluorescence polarization assay, labeled Bak BH3 peptide binding to Bcl-xL fusion protein; conditions: for order of affinities of BH3Is: overall rank order from FP, NMR, pulldown and SELDI results; for order of decreasing affinity, fluorescence polarization assays: rank order
From the text: We have used a fluorescence polarization assay to screen a library of 16,000 chemical compounds (ChemBridge, San Diego, Calif.) to identify small molecules that inhibit the interaction between a peptide corresponding to the BH3 domain of a pro-apoptotic protein and a recombinant Bcl-xL/GST fusion protein. In this assay, an […] peptide corresponding to the BH3 domain of Bak was used. The Bak peptide was labeled with a fluorescent tag, such as OREGON GREEN. Upon binding of the tagged peptide to the Bcl-xL/GST fusion protein, the polarization of light emitted by the tagged peptide is altered. […] Conversely, in a sample in which a compound does inhibit the interaction between the Bak peptide and the Bcl-xL/GST fusion protein the polarization of light emitted by the peptide will not be altered.
A nineteen amino acid Bak peptide, corresponding to the BH3 domain of Bak, with the sequence […] (SEQ ID NO: 2) was labeled with the fluorophore OREGON GREEN according to the manufacturer's instructions (Molecular Probes, Eugene, Oreg.). In addition, a recombinant Bcl-xL/GST fusion protein was generated using conventional techniques known to those skilled in the fields of biochemistry and molecular biology. The interaction between the Bak peptide and the Bcl-xL/GST fusion protein was confirmed.
A screen of approximately 16,000 compounds from the ChemBridge chemical compound library was conducted to identify compounds that disrupt the interaction between the Bak peptide and the Bcl-xL/GST fusion protein. The ability of a compound to disrupt the interaction between the two polypeptides was assessed using a fluorescence polarization assay. The Bak peptide and Bcl-xL/GST fusion protein (15 nM each; dissolved in PBS) were first combined, and then the compound was added. Alternatively, the Bak peptide, Bcl-xL/GST fusion protein, and test compound (5 mg/ml; dissolved in 0.1-0.5 gl of DMSO) may be combined in any order. Normally the unbound Bak polypeptide results in polarization of approximately 40 mP units. Upon binding of the Bcl-xL/GST fusion protein, polarization increased to approximately 100-120 mP units.
In a preferred method, the fluorescence assay was carried out as follows. Bak BH3 peptide (Research Genetics) was labeled using NHS-OREGON GREEN (Molecular Probes) and purified by HPLC. For the initial screening assays, 33 nM of labeled BH3 peptide, 2 μM of GST-Bcl-xL protein, 0.1% bovine gamma globulin (BGG, Sigma) and 1 mM DTT mixed with PBS, pH 7.2 (Gibco) were added into 384 well black plates (Lab Systems) using MULTIDROP (Lab Systems). Small molecules (5 mg/ml in DMSO, ChemBridge) were transferred using plastic 384-pin arrays (Genetix). The plates were incubated for 1-2 hr at 25° C., and the fluorescence polarization assay values were determined using an Analyst plate reader (LJL Biosystems). Reactions containing 16.65 nM of labeled BH3 peptide and 4.2 μM of Bcl-xL-His6 fusion protein, which was previously utilized to characterize BH3/Bcl-xL binding (Sattler et al., Science 275:983-6, 1997) were used for the further fluorescence polarization analyses. Kd and Ki determination was performed as previously described using […] PRISM software package (GraphPad) (Dandliker et al., Methods Enzymol. 74:3-28,1981).
In a further screen, various concentrations of each of the above-identified compounds were evaluated for their potency. A serial dilution of each chemical compound was performed and the fluorescence polarization assay was repeated, as per the primary screen. As a result of the secondary screening, three compounds, chemical compound ID numbers 275805 (BH3I-1; FIG. 1), 282986 (BH3I-1′; FIG. 2), and 175362 (BH3I-2; FIG. 3), collectively termed “BH3Is,” were identified to disrupt the interaction between Bak and the BCL-xL/GST fusion protein. […] Additional homologues of the BH3I-1s (BH3I-1″ and BH3I-1′″) and BH3I-2 (BH3-2″ and BH3I-2″) were also analyzed in the study (FIG. 4). […]

Jurkat cells = assay: Cytotoxicity by MTS assay and propidium iodide uptake; format: cell-based
Protocol: Since BH3Is induce apoptosis, their mode of action, for example, through disruption of BH3 domain interactions, was investigated next. If apoptosis induced by a BH3I is BH3-dependent, then cytotoxicity should correlate with the compound's ability to disrupt BH3 domain interactions in vitro. To examine this possibility, Jurkat cells were treated with the BH3 Is and the occurrence of cell death was assayed by the MTS assay and propidium iodide (PI) uptake (FIG. 7A). The cytotoxicity of BH3-Is followed the order of BH3I-2′>BH3I-2>BH3I-2″>BH3I-1>BH3I-1′>BH3I-1″>BH3I-1′″ which paralleled the order of their Ki values determined using in vitro Bcl-xL binding assays (FIGS. 7B and 7C). Similar data were obtained using a trypan blue exclusion assay.

Bcl-xL = target: T1, Bcl-xL (Homo sapiens, UniProt Q07817, DEL45-84); assay: NMR titration of Bcl-xL; format: binding; conditions: rank order
T1 construct: His6 (C); made in house
T1 sequence (Q07817 with tags, fused parts or gaps DEL45-84 limits assumed): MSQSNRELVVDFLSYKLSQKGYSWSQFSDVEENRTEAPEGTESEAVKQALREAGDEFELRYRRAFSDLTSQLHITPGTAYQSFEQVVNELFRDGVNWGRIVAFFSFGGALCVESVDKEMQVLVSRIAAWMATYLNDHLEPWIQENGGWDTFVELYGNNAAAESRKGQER
Protocol: To verify this conclusion, NMR titrations of Bcl-xL with BH3I-1s were performed and their Ki values were determined (FIG. 4). […] The BH3I-1s Ki values obtained by the NMR approach agree with the results of both pulldown and SELDI analyses. Therefore, the order of affinities of BH3Is is: BH312′>BH3I-2>BH3I-2″>BH3I-1>BH3I-1′>BH3I-1″>BH3I-1′″.
NMR titration was used to examine whether BH3Iinteracts with the binding pocket of Bcl-xL in a manner similar to Bak BH3 peptide (Hajduk et al., Science 278:497-499, 1997).
Next, changes in Bcl-xL structure upon addition of increasing amounts of BH3Is were determined. Each of the BH3Is induced significant changes in the Bcl-xL structure. The compounds targeted the hydrophobic cleft formed by the BH1, BH2, and BH3 domains on the surface of the Bcl-xL protein, and primarily bound to the area formed by BH1 and BH2 domains.

HeLa cells = assay: Cell death by ATP levels after zVAD-fmk pretreatment; format: cell-based; conditions: zVAD-fmk 100 μM pretreatment, 48 or 72 hours
Protocol: The conditions under which cell death occurs in the presence of BH3Is were further evaluated. HeLa cells were pretreated with zVAD-fmk (100 μM) for 1 hour. The purpose of such a treatment was to inhibit the intracellular pathways mediating cell death by apoptosis. Each of the chemical compounds BH3I-1, BH3I-1′, or BH3I-2 was then added to the media of the cells of three separate samples. After 48 or 72 hours of exposure of the cells to zVAD-fmk and the chemical compound, the level of cell death was measured for each sample, by measuring cellular ATP levels.

[2] = system: HeLa cells that stably overexpress human BCL-XL; assay: Cell death by ATP levels in Bcl-xL overexpressing cells after zVAD-fmk pretreatment; format: cell-based; conditions: zVAD-fmk 100 μM pretreatment, 48 or 72 hours
Protocol: In another study, HeLa cells that stably overexpress human BCL-XL, and are therefore more resistant to cell death, were pretreated with zVAD-fmk (100 μM) for 1 hour, as described above. Each of the chemical compounds BH3I-1, BH3I-1′, and BH3I-2 from the ChemBridge library was then added to the media of the cells of three separate samples. After 48 or 72 hours of exposure of the cells to zVAD-fmk and the chemical compound, the level of cell death was measured for each sample, by measuring cellular ATP levels.

HeLa cells, Jurkat cells = assay: Caspase dependence of BH3I-induced cell death (zVAD-fmk); format: cell-based; conditions: Hoechst dye
Protocol: FIG. 10A is a graph showing the comparison of BH3Is and Bax induced cell death. HeLa cells were transfected with YFP-Bax and pEYFP-C 1 for 48 hr in the absence (open bars) or presence (closed bars) of 100 μM zVAD-fmk. YFP transfected cells were also treated with BH3I-1 (100 μM) or BH3I-2 (50 μM) for 48 hours. Cell viability was determined by propidium iodide (PI) staining and microscopic examination of PI/YFP positive cells. Numbers represent the percentage of PI positive cells in the YFP positive population. The values of standard deviation are also shown.
FIG. 10B is a graph showing the attenuation of BH3Is' cytotoxicities by the pan-caspase inhibitor zVAD-fmk. Jurkat cells were treated with BH3I-1 or BH3I-2 in the presence (open bars) or absence (closed bars) of 100 μM zVAD-fmk (Alexis) for 48 hr. Cell death was determined using an MTS assay. Numbers represent the percentages of cell death, normalized relative to a DMSO treated control, which was set at 100% viability. Standard deviation values are also shown.
FIG. 10C is a set of images of cells showing that nuclear fragmentation, but not cytochrome c release, induced by BH3Is, requires caspases. […]
FIG. 10D-1-10D-6 are a series of graphs showing DNA fragmentation analysis of Jurkat cells treated with BH3Is and zVAD-fmk. […] Samples were analyzed by FACS, and the percentage of subG1 DNA is shown for each sample. […]

[3] = MTS assay and PI uptake, rank order

| Structure (SMILES) | order of affinities of BH3Is [1] | order of decreasing affinity, fluorescence polarization assays [1] | order of cytotoxicity (Jurkat cells; [3]) | relative order of affinities, NMR titrations (Bcl-xL) | order of cytotoxicity (Jurkat cells) | cellular ATP levels (HeLa cells) | cellular ATP levels [2] | protection from BH3I-induced nuclear fragmentation (HeLa cells, Jurkat cells) |
| --- | --- | --- | --- | --- | --- | --- | --- | --- |
| O=C(Nc1cc(S(=O)(=O)c2ccc(Cl)cc2)ccc1Cl)c1cc(Cl)cc(I)c1O [BH3I-2′] | BH312′>BH3I-2>BH3I-2″>BH3I-1>BH3I-1′>BH3I-1″>BH3I-1′″ | BH3I-1>BH3I-1′>BH3I-2′>BH3I-2>BH3I-2″>BH3I-1″ | BH3I-2′>BH3I-2>BH3I-2″>BH3I-1>BH3I-1′>BH3I-1″>BH3I-1′″ |  |  |  |  |  |
| CC(C)C(C(=O)O)N1C(=O)/C(=C/c2ccc(N(C)C)cc2)SC1=S (stereo not shown) [BH3I-1′″] | BH312′>BH3I-2>BH3I-2″>BH3I-1>BH3I-1′>BH3I-1″>BH3I-1′″ |  |  | BH3I-1>BH3I-1′>BH3I-1″>BH3I-1′″ | BH3I-2′>BH3I-2>BH3I-2″>BH3I-1>BH3I-1′>BH3I-1″>BH3I-1′″ |  |  |  |
| CC(C)C(C(=O)O)N1C(=O)/C(=C/c2ccc(Cl)cc2)SC1=S (stereo not shown) [BH3I-1′] | BH312′>BH3I-2>BH3I-2″>BH3I-1>BH3I-1′>BH3I-1″>BH3I-1′″ | BH3I-1>BH3I-1′>BH3I-2′>BH3I-2>BH3I-2″>BH3I-1″ | BH3I-2′>BH3I-2>BH3I-2″>BH3I-1>BH3I-1′>BH3I-1″>BH3I-1′″ | BH3I-1>BH3I-1′>BH3I-1″>BH3I-1′″ |  | cellular ATP levels decreased | cellular ATP levels decreased |  |
| O=C(Nc1cc(S(=O)(=O)c2ccc(Cl)cc2)ccc1Cl)c1cc(I)cc(I)c1O [BH3I-2″] | BH312′>BH3I-2>BH3I-2″>BH3I-1>BH3I-1′>BH3I-1″>BH3I-1′″ | BH3I-1>BH3I-1′>BH3I-2′>BH3I-2>BH3I-2″>BH3I-1″ | BH3I-2′>BH3I-2>BH3I-2″>BH3I-1>BH3I-1′>BH3I-1″>BH3I-1′″ |  |  |  |  |  |
| COC(=O)C[C@H](NC(=O)[C@H](C)NC(=O)[C@@H](NC(=O)OCc1ccccc1)C(C)C)C(=O)CF [zVAD-fmk] (Cbz-Val-Ala-Asp(OMe)-CH2F) |  |  |  |  |  |  |  | completely protected cells from BH3I-induced nuclear fragmentation |
